From paper PMC8927147, “Global profiling of regulatory elements in the histone benzoylation pathway” (Nature Communications, 2022)
Where a chain is given by its changes, count along the chain named. Peptide text beside a SMILES is read from it. * marks the point of attachment. Bz = O=C(c1ccccc1)*

Assays:
[1] = biological target: T1, Sth1BD (Saccharomyces cerevisiae, UniProt P32597); experiment: ITC binding of H3 peptides to Sth1 bromodomain
T1 construct: Sth1BD (residues 1248-1359); 6*His-Sumo (N, cleaved yes); made in house; host or cells: Escherichia coli Rosetta
T1 sequence (P32597 1248-1359): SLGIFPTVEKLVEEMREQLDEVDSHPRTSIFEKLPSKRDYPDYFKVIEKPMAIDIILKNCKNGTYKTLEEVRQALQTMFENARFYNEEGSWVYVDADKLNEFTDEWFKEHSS
Procedure: (§1) ITC titrations were performed using a MicroCal ITC200 system (GE Healthcare, USA) at 20 °C. For ITC measurement, peptides and proteins were dialyzed into the same buffer (25 mM Tris-HCl, pH 8.0, 150 mM NaCl). […] For reader-related ITC experiments, peptides at 2.0 mM in the syringe were titrated into Taf14YEATS/Sas5YEATS/Sth1BD at 0.1–0.2 mM in the sample cell. Each titration consisted of 20 successive injections. The titration curves were processed using the Origin 7.0 software program (OriginLab) according to the one-binding-site fitting model. Each titration was repeated twice, and one representative plot was shown in the paper. The dissociation constants (Kd), enthalpy changes (ΔH), and fitting errors were derived from one representative ITC plot.

[2] = biological target: T2, Sth1BD A1329C (Saccharomyces cerevisiae, UniProt P32597, A1329C); experiment: ITC binding of H3K14bz peptide to Sth1BD A1329C mutant
T2 construct: Sth1BD (residues 1248-1359); 6*His-Sumo (N, cleaved yes); made in house; host or cells: Escherichia coli Rosetta
T2 sequence (P32597 1248-1359 A1329C): T1 sequence (P32597 1248-1359) with A82C
Procedure: as §1

[3] = biological target: T3, Sas5YEATS (Saccharomyces cerevisiae, UniProt Q99314); experiment: ITC binding of H3 peptides to Sas5YEATS
T3 construct: 6*His-Sumo (N, cleaved yes); made in house; host or cells: Escherichia coli Rosetta
T3 sequence (Q99314 2-139): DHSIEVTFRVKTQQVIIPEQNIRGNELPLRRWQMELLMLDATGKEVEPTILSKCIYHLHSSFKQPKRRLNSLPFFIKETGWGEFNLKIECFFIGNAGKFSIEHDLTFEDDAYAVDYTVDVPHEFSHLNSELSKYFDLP

[4] = test system: Gcn5-Ada2; experiment: DTNB acylation activity assay of Gcn5-Ada2; format: biochemical, Saccharomyces cerevisiae; details: 250 μM H3 1-18 peptide, pH 7.8, 30 °C
Procedure: Kinetic measurements comparing rates of acetylation and benzoylation were performed using the 5,5′-dithiobis-(2-bitrobenzoic acid) (DTNB, D218200-1G, Sigma) assay. Reactions contained 2 μM Gcn5-Ada2, 250 μM H3 peptide amino acids 1-18 ([…]), 100 mM HEPES pH7.8, 50 mM NaCl and 500 μM acetyl-CoA or benzoyl-CoA. Each reaction was incubated for 5 min at 30 °C before adding acyl-CoA to start the reaction. The reaction was quenched at the indicated time points by adding two volumes of freshly prepared quenching buffer (3.2 M guanidine-HCl, 100 mM sodium phosphate pH 6.8). The samples were added to one volume of 4 mM DTNB dissolved in 100 mM sodium phosphate (pH 6.8) and transferred to a 384-well polystyrene clear-bottom plate (CORNING, 3680), and the absorbance at 412 nm was measured in a Bio-TEK plate reader. Absorbances were converted to concentrations using a standard curve generated by HSCOA standards. The acetylation reaction was quenched after 0.5, 1.0, 1.5, 2.0, and 2.5 min, and the benzoylation reaction was quenched after 1, 2, 3, and 4 h. All acylation rates were corrected by subtracting the rate of acyl-CoA consumption by Gcn5-Ada2 in the absence of peptide. The acetylation assays were performed in triplicate, but the benzoylation assay was not repeated due to the limitation of materials.

[5] = test system: BY4742 cells; experiment: Western blot of histone Kbz and Kac levels in yeast treated with sodium benzoate; format: cell-based, Saccharomyces cerevisiae; details: BY4742 cells in YPD at log phase, sodium benzoate added for 6 h, histones extracted; pan anti-Kbz and anti-Kac
Description: Anti-Kbz (PTM Biolabs Inc., PTM-762, 1:1000, Lot^# 1314381619I926), anti-Kac (Cell signal, 9441 S, 1:1000, Lot^# 14), anti-H3N (Active motif, 39763, 1:700, Lot^# 20418023), anti-H4 (Active motif, 61521, 1:3000, Lot^# 31416005), and anti-tubulin (Sigma, T6199, 1:3000, Lot^# 048M4751V) antibodies were used in this study. The HRP secondary antibody and the fluorescent secondary antibodies were used: Peroxidase AffiniPure Goat Anti-Mouse IgG (Jackson ImmunoResearch, 1:5000, 115-035-003), Peroxidase AffiniPure Goat Anti-Rabbit IgG (Jackson ImmunoResearch, 1:5000, 111-035-003), IRDye 800CW goat anti-rabbit IgG (LI-COR P/N 923-32211, 1:5000, Lot^# D00304-15) and IRDye 680RD goat anti-Mouse IgG (LI-COR P/N 926-68070, 1:10000, Lot^# D01014-04). The fluorescent western blots were detected on Odyssey CLx (LI-COR) and quantified by Image Studio (ver. 5.2.5).
Typically, 100 mg yeast cell pellets were harvested and suspended in 1 ml buffer A (1 M sorbitol, 50 mM Tris-HCl, pH 7.5, 5 mM MgCl2, 5 mM 2-mercaptoethanol) and centrifuged for 5 min at 900 g. Then, the pellet was resuspended in 1 ml buffer A with 60 μl zymolyase. […] The concentration of histones was measured by a BCA Protein Assay Kit (TIANGEN, PA115-01, China). The samples were analyzed by western blot or by mass spectrometry.

## CC(C)C[C@H](NC(=O)[C@H](CCC(N)=O)NC(=O)[C@H](CCCCN)NC(=O)[C@H](CCCNC(=N)N)NC(=O)[C@@H]1CCCN1C(=O)[C@H](C)NC(=O)[C@H](CCCCNC(=O)c1ccccc1)NC(=O)CNC(=O)CNC(=O)[C@@H](NC(=O)[C@H](CO)NC(=O)[C@H](CCCCN)NC(=O)[C@H](CCCNC(=N)N)NC(=O)[C@H](C)NC(=O)[C@@H](N)[C@@H](C)O)[C@@H](C)O)C(=O)N[C@@H](C)C(=O)N[C@@H](CO)C(=O)N[C@@H](Cc1ccc(O)cc1)C(=O)O [H3K14bz] (H-TARKSTGGK(Bz)APRKQLASY-OH)
[1]
  Kd: 88.5 ± 12.4 µM
[2]
  Kd: 187 ± 29.8 µM

## CC(C)C[C@H](NC(=O)[C@H](CCC(N)=O)NC(=O)[C@@H](N)CCCCN)C(=O)N[C@@H](C)C(=O)N[C@@H](CO)C(=O)N[C@@H](CCCCN)C(=O)N[C@@H](C)C(=O)N[C@@H](C)C(=O)N[C@@H](CCCNC(=N)N)C(=O)N[C@@H](CCCCNC(=O)c1ccccc1)C(=O)N[C@@H](CO)C(=O)N[C@@H](C)C(=O)N1CCC[C@H]1C(=O)N[C@@H](CO)C(=O)N[C@H](C(=O)NCC(=O)NCC(=O)N[C@H](C(=O)N[C@@H](CCCCN)C(=O)N[C@@H](Cc1ccc(O)cc1)C(=O)O)C(C)C)[C@@H](C)O [H3K27bz] (H-KQLASKAARK(Bz)SAPSTGGVKY-OH)
[3]
  Kd: 92.6 ± 5.63 µM
[1]
  Kd: 386 µM

## CC(=O)SCCNC(=O)CCNC(=O)[C@H](O)C(C)(C)COP(=O)(O)OP(=O)(O)OC[C@H]1O[C@@H](n2cnc3c(N)ncnc32)[C@H](O)[C@@H]1OP(=O)(O)O [acetyl-CoA]
[4]; 2 μM Gcn5-Ada2, 500 μM acetyl-CoA, n = 3
  acetylation rate: 10.35 µM/min

## CC(C)(COP(=O)(O)OP(=O)(O)OC[C@H]1O[C@@H](n2cnc3c(N)ncnc32)[C@H](O)[C@@H]1OP(=O)(O)O)[C@@H](O)C(=O)NCCC(=O)NCCSC(=O)c1ccccc1 [benzoyl-CoA]
[4]; 2 μM Gcn5-Ada2, 500 μM benzoyl-CoA, single experiment
  benzoylation rate: 1.19 µM/h

## O=C([O-])c1ccccc1.[Na+] [sodium benzoate]
[5]
  effect on histone Kbz and Kac signals (western blot): significantly enhanced the Kbz and Kac signals on yeast histones in a dose-dependent manner
